These are literature values, as cited in US20230364032A1, “USE OF 2-HOBA TO TREAT ATHEROSCLEROSIS” (Vanderbilt University, priority 2020, published 2023).

Where two headings read alike, the source gives them in different places.

In data set [1] the test system is Apoe−/− mice. As to conditions: cited from earlier work; for effect on atherosclerotic lesions: streptozotocin-treated Apoe−/− mice.
The target in data set [2] is T1, IL-1β (Homo sapiens, UniProt P01584).
T1 construct: host or cells: patients of a clinical trial (endogenous protein)
The settings on record: humans with prior MI and elevated hsCRP; cited from earlier work.

In the case of `Cc1c(C)c2c(c(C)c1O)CC[C@@](C)(CCC[C@H](C)CCC[C@H](C)CCCC(C)C)O2` [alpha tocopherol], in data set [1] (Apoe−/− mice), the effect on atherosclerosis result is given as “reduces” and the “effect on urine F2-IsoP levels” value is listed as “reduces”.

On to `N=C(N)NN` [aminoguanidine], for which the “effect on atherosclerotic lesions” value in data set [1] is on record as “reduce atherosclerotic lesions”.

`NCCC(=O)N[C@@H](Cc1cnc[nH]1)C(=O)O` [carnosine]: the effect on atherosclerosis result in data set [1] (Apoe−/− mice or streptozotocin-treated Apoe−/− mice) is recorded as “reduce atherosclerosis”.

For the molecule `Cc1ncc(CO)c(CN)c1O` [pyridoxamine], in data set [1], the “effect on atherosclerotic lesions” value is “reduce atherosclerotic lesions”.

As for “canakinumab: an IL-1β neutralizing monoclonal antibody”, the cardiovascular event rates entry in data set [2] is given as “reduce cardiovascular event rates”.
